# Assay results published in patent US20250025451A1, “TREATMENT OF CANCER WITH KDM4 INHIBITORS” (Celgene Corporation, priority 2021, published 2025).
# Like-named read-outs stand apart in the source and are kept apart here.
# How the values were obtained:
# PNUTS mRNA = test: inhibition of PNUTS gene expression by qPCR in MDA-MB-231 cells; type: cell-based; conditions: Homo sapiens, 24 hours
# Method: In a study of the inhibitory effects of Compound 1 on the gene expression of PNUTS, MDA-MB-231 cells were treated for 24 hours and expression levels of PNUTS mRNA in response to Compound 1 treatment were measured by qPCR. The inhibition of PNUTS mRNA was quantified by calculating mean percent change in PNUTS gene expression following the Compound 1 treatment relative to the DMSO-treated control and IC50 value was calculated as concentration where inhibition was half-maximal. The IC50 value was 0.007 μM.
# [1] = test system: SU60 patient-derived colon cancer organoid model; test: organoid colony formation and viability assay, SU60; type: cell-based, human
# Method: The IC50 values for Compound 1 inhibition of colony formation and viability were determined for the patient-derived colon cancer organoid models: SU60, T002C, SU62, SU34, SU103, T03SC, and SU106, patient-derived pancreatic cancer organoid models PA016SF, PA0143F, T016P, and T028P, and a patient-derived breast cancer organoid model FS5S3.
# Colony formation and viability assays were performed in multiwell plates seeded with organoids using an in vitro culture system composed of a Matrigel layer, media containing a defined set of growth factors, and co-culture with Wnt3 A-secreting mouse embryonic fibroblasts. Assays were initiated by adding either DMSO as a negative control, or an inhibitor panobinostatat 100×IC50 concentration as a positive control, or serially diluted Compound 1. The cultures were incubated for 168 or 144 hours after which the number of viable organoids in each test well was assessed respectively using one of two detection methods: CTG or staining with calcein-AM followed by imaging and colony counting. Colony count or viability of cells treated with compound 1 was expressed as a percent of the negative control. Aggregated Percent of Control values were plotted against the corresponding Compound 1 concentration and the absolute IC50 value was determined from a non-linear regression curve as the concentration where inhibition was 50% of the control.
# The colony formation inhibition assays were performed in multiwell plates seeded with SU60 organoids. The cultures were incubated for 168 hours after which the number of colonies was assessed by staining with calcein AM followed by imaging and colony counting. Colony counts were expressed as a percent of the negative control and aggregated Percent of Control values were plotted against the corresponding Compound 1 concentration. A curve was fitted using non-linear regression.
# MCF-7 = test: cell-proliferation assay (MTS), MCF-7; type: cell-based; conditions: MCF-7, human breast carcinoma
# Method: (§1) Compound 1 was evaluated in in vitro cell-proliferation assays (BrdU assay, MTS assay, or Cell Titer Glo (CTG) assay) in multiple cancer cell lines and patient-derived organoid models to determine half-maximal inhibitory concentrations (IC50s).
# (§2) Viability and BrdU thymidine incorporation assays were performed in multiwell plates seeded with cells in growth medium. After seeding, multiwell plates were cultured for 24 hours in a humidified incubator at 37° C. to promote adherence. […] The cultures were incubated for 168 hours after which the number of viable cells or the amount of thymidine incorporation in each test well was assessed by the methods as indicated above. Readouts were performed using an EnVision® Multilabel Reader (PerkinElmer, Waltham, MA) and the results were expressed as a percent of the negative control. Percent of Control values were plotted against the corresponding Compound 1 concentration and the relative IC50 value was determined from a non-linear regression curve as the concentration where inhibition was half-maximal. For cell lines where the number of IC50 determinations exceeded one, the IC50 was expressed as the mean IC50±SD.
# (§3) Half-maximal inhibitory concentration (IC50) values for Compound 1 inhibition of cell proliferation were determined for nine cancer cell lines and one normal human fibroblastcell line.
# [2] = test system: KYSE-150 human esophageal cancer xenograft; type: in vivo; conditions: for Median Tumor Volumes Day 21: KYSE-150 CDX Study #2, female NOD/SCID mice; for % TGI / Median Tumor Volumes Diff.: KYSE-150 Study #2; for % TGI: Day 21; for Median Tumor Volumes Diff.: Day 21 minus Day 1
# Method: The therapeutic in vivo efficacy of Compound 1 was evaluated in SU60 colorectal cancer, KYSE-150 esophageal cancer, COH70 triple-negative breast cancer, GXA-3036 gastric adenocarcinoma and OCI-LY19 Diffuse Large B-Cell Non-Hodgkin's Lymphoma xenograft models. In all studies, efficacy was determined based on percent tumor growth inhibition (TGI), differences in mean tumor growth, and statistical assessment of differences in net tumor volume distributions on the day of TGI analysis between control and treated animals. Tolerability was assessed based on differences in mean body weights between control and treated animals over the course of the study.
# Study #2—The in vivo therapeutic efficacy and tolerability of Compound 1, administered orally as the lysine salt suspended in a vehicle comprised of 10% PEG 400 and 90% of 0.5% MC, was evaluated in the KYSE-150 ESCC CDX model established in female NOD/SCID mice. Each mouse was inoculated subcutaneously in the right flank with 1×10^7 KYSE-150 tumor cells (0.1 ml) suspended in 50% Matrigel. When the average tumor size reached ˜153 mm3, test animals were randomized into 4 groups consisting of 8 mice per group and treatments were initiated. Control mice received 10% PEG 400 and 90% of 0.5% MC vehicle PO QDx21. Treated mice received the Compound 1 lysine salt form suspended in vehicle at 10, 15, or 20 mg/kg on the same schedule. TGI was determined on Day 21 as (1−Difftreated/Diffcontrol)×100. Individual tumors were measured twice weekly in two dimensions using a caliper, and the tumor volumes (TV) in mm3 were calculated using the formula: TV=0.5 a×b2, where a and b are the long and short tumor diameters in mm, respectively; Mean tumor volumes±SEM were calculated and plotted versus days of dosing (FIG. 12 left panel). Body weights were measured twice weekly. Body weights±SEM were calculated and plotted versus days of dosing (FIG. 12 right panel).
# The difference in mean net tumor volumes on the day of TGI analysis for treated versus control animals was evaluated statistically using one-way ANOVA followed by Dunnetts multiple comparisons test. Adjusted p-values are shown where a calculated probability (p)≤0.05 was considered statistically significant.
# HT-29 = test: cell-proliferation assay (BrdU, CTG), HT-29; type: cell-based; conditions: HT-29, human colorectal adenocarcinoma, mean
# Method: as §1, §2, §3
# H3K36me3 = test: dose-dependent inhibition of histone demethylase, H3K36me3 immunoblot; type: cell-based; conditions: FIG. 6
# Method: FIG. 6 illustrates the dose-dependent inhibition of histone demethylase by Compound 1. Left Panel: Representative immunoblot showing change in staining intensity for actin (red bands) and H3K36me3 (green bands) in response to Compound 1 at various concentrations. Right Panel: Normalized ratio of band intensities for H3K36me3 and actin versus the concentration of Compound 1 (μM). (mean IC50±SD value−0.085±0.004 μM).
compound,measurement,setting,value
"CC(C)c1ccc(N(C)c2ccc3c(c2)OCC[C@H]3CNc2cnccc2C(=O)O)cc1 [Compound 1, 3-({[(4R)-7-{methyl[4-(propan-2-yl)phenyl]amino}-3,4-dihydro-2H-1-benzopyran-4-yl]methyl}amino)pyridine-4-carboxylic acid]",IC50,PNUTS mRNA,7 nM
same,IC50,"[1]; Homo sapiens, SU60 colorectal carcinoma model, colony formation and viability assays",< 150 nM
same,IC50,"[1]; SU60 human colorectal carcinoma organoid, 144 hrs, Colony Counts",64 nM
same,IC50,"[1]; SU60 human colorectal carcinoma organoid, 168 hrs, CTG",23 nM
same,IC50,"MCF-7; Homo sapiens, MCF7, 168 h",< 40 nM
same,IC50,MCF-7; 168 hours,37 nM
same,Median Tumor Volumes Day 21,[2]; lysine salt 10 mg/kg (free acid equivalents) PO QD x21,1027 mm^3
same,Median Tumor Volumes Day 21,[2]; lysine salt 15 mg/kg (free acid equivalents) PO QD x21,620 mm^3
same,Median Tumor Volumes Day 21,[2]; lysine salt 20 mg/kg (free acid equivalents) PO QD x21,469 mm^3
same,% TGI,[2]; 10 mg/kg PO QD x21,54%
same,Median Tumor Volumes Diff.,[2]; 10 mg/kg PO QD x21,876 mm^3
same,% TGI,[2]; 15 mg/kg PO QD x21,76%
same,Median Tumor Volumes Diff.,[2]; 15 mg/kg PO QD x21,468 mm^3
same,% TGI,[2]; 20 mg/kg PO QD x21,84%
same,Median Tumor Volumes Diff.,[2]; 20 mg/kg PO QD x21,315 mm^3
same,IC50,HT-29; 168 hours,23.5 nM
same,IC50,"HT-29; Homo sapiens, HT-29, 168 h",< 40 nM
same,"mean IC50±SD, H3K36me3/actin band intensity ratio",H3K36me3,85 ± 4 nM
